Earlier results as cited in patent US20220362213A1, “METHODS FOR TREATING POST ENDOSCOPIC RETROGRADE CHOLANGIOPANCREATOGRAPHY PANCREATITIS” (priority 2021, published 2022).

Columns and labels:
post-ERCP pancreatitis [1] = details: for preventing post-ERCP pancreatitis: two large controlled trials, pharmacologic prevention in high-risk patients
post-ERCP pancreatitis [2] = details: single-dose rectal; meta-analysis of preliminary studies

| Compound | protective effects in post-ERCP pancreatitis (post-ERCP pancreatitis [2]) | preventing post-ERCP pancreatitis (post-ERCP pancreatitis [1]) | other results |
| --- | --- | --- | --- |
| secretin |  |  | incidence of post-ERCP pancreatitis (post-ERCP pancreatitis [1]; retrospective review of 4833 ERCP procedures, patients without pancreas divisum): might decrease the incidence |
| O=C(O)Cc1ccccc1Nc1c(Cl)cccc1Cl [diclofenac] | benefit |  |  |
| CCOC(=O)c1ccc(OC(=O)CCCCCNC(=N)N)cc1 [gabexate] |  | ineffective | reducing the frequency of post-ERCP pancreatitis (post-ERCP pancreatitis [1]; prophylaxis, meta-analysis of 28 clinical trials): effective |
| COc1ccc2c(c1)c(CC(=O)O)c(C)n2C(=O)c1ccc(Cl)cc1 [indomethacin] | benefit |  |  |
| C[C@@H](O)[C@@H]1NC(=O)[C@H](CCCCN)NC(=O)[C@@H](Cc2c[nH]c3ccccc23)NC(=O)[C@H](Cc2ccccc2)NC(=O)[C@@H](NC(=O)[C@H](N)Cc2ccccc2)CSSC[C@@H](C(=O)N[C@H](CO)[C@@H](C)O)NC1=O [octreotide] |  | ineffective | hyperamylasemia (post-ERCP pancreatitis [1]; after ERCP): reduces hyperamylasemia; clinical course of post-ERCP pancreatitis (post-ERCP pancreatitis [1]; human, in vivo): has not been shown to alter the clinical course |
